This note sets out measurements from patent publication US7585873B2, “1-(aminoalkyl)-3-sulfonylazaindoles as 5-hydroxytryptamine-6 ligands” (Wyeth, priority 2002, dated 2009).

Series [1] has as its target T1, human cloned 5-HT6 receptors (Homo sapiens, UniProt P50406).
T1 construct: expressed in transfected cells; host or cells: Hela cells
Put plainly: 5-HT6 binding affinity, [3H]-LSD displacement on membranes of Hela cells expressing human cloned 5-HT6 receptors.

[2] abbreviates: [3H]-LSD 3.0 nM, Hela cell membranes, 120 min at room temperature, read-out: 5-HT6 Binding Ki.

Where a name gives a salt, the structure may show the parent alone. Read-outs that look alike come from different tables or passages of the source.

T1 sequence (P50406 whole entry): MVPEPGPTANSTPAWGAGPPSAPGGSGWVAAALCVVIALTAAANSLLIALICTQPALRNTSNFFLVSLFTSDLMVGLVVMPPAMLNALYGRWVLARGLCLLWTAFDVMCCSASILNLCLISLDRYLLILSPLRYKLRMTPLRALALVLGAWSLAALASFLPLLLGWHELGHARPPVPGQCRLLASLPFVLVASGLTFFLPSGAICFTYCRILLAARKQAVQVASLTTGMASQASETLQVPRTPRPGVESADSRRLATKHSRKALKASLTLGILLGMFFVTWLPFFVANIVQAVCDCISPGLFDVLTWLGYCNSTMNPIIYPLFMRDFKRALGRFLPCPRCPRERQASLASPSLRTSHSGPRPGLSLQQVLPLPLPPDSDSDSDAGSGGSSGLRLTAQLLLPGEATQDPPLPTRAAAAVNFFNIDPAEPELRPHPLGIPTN

Turning to `O=S(=O)(c1cccc(F)c1)c1cn(CCN2CCCCC2)c2ncccc12` (as salt: hydrochloride) [Example 29], the melting point lay within 197 to 199 °C.
Same read-out and setting: next, `CN(C)CCn1cc(S(=O)(=O)c2cccc(Cl)c2)c2cccnc21` (as salt: hydrochloride) [Example 14]: 182 to 186 °C; `CN(C)CCn1cc(S(=O)(=O)c2ccccc2C(F)(F)F)c2cccnc21` (as salt: hydrochloride) [Example 20]: 196 to 198 °C.
In the case of `Cc1c(S(=O)(=O)c2cccc(F)c2)c2cccnc2n1CCN` [Example 66], in series [1] (setting [2]), the Ki came to 2 nM.
`CN(C)CCn1cc(S(=O)(=O)c2c(Cl)cccc2Cl)c2cccnc21` [Example 37] yielded a melting point of 220 to 222 °C. For the same compound, the inhibition constant (Ki) in series [1] (setting [2]) was found to be 9 nM.
Take `COc1ccc2c(S(=O)(=O)c3ccccc3)cn(CCN(C)C)c2n1` [Example 42]: the inhibition constant Ki in series [1] (setting [2]) came to 39 nM.
The same measure, in the same setting: next, `CN(C)CCn1cc(S(=O)(=O)c2c(Cl)nc3sccn23)c2cccnc21` [Example 34]: 2 nM; `O=S(=O)(c1cccc(F)c1)c1cn(CCN2CCOCC2)c2ncccc12` [Example 30]: 403 nM.
For the compound `CN(C)CCn1cc(S(=O)(=O)c2cccc3ccccc23)c2cccnc21` (as salt: hydrochloride) [Example 15], the melting point was 203 to 206 °C.
In turn, `CN(C)CCn1cc(S(=O)(=O)c2cccc(C#N)c2)c2cccnc21` [Example 44] displayed a melting point of 148 to 150 °C. The Ki in series [1] (setting [2]) amounted to 63 nM.
As for `CC(CN)n1cc(S(=O)(=O)c2ccccc2)c2cccnc21` (stereo not shown) (as salt: hydrochloride) [Example 68], the melting point is 180 to 185 °C.
On the same count and under the same terms, next, `CN(C)CCn1cc(S(=O)(=O)c2ccc(F)cc2)c2cccnc21` (as salt: hydrochloride) [Example 13]: 189 to 192 °C.
Compound `NCCn1cc(S(=O)(=O)c2cccc(Cl)c2)c2cccnc21` [Example 12, 2-{3-[(3-Chlorophenyl)sulfonyl]-1H-pyrrolo[2,3-b]pyridin-1-yl}ethylamine dihydrochloride] yielded an inhibition constant Ki in series [1] of 20 nM.
On to `CN(C)CCn1cc(S(=O)(=O)c2c(Cl)nc3sccn23)c2cccnc21` (as salt: hydrochloride) [Example 34], for which the melting point lay within 180 to 182 °C.
Turning to `NCCn1cc(S(=O)(=O)c2cccc3ccccc23)c2cccnc21` [Example 16], the inhibition constant (Ki) in series [1] (setting [2]) was found to be 2 nM.
For the compound `O=S(=O)(c1cccc(F)c1)c1cn(CCN2CCCC2)c2ncccc12` [Example 28], the inhibitory constant (Ki) in series [1] (setting [2]) came to 88 nM.
Take `CN(C)CCn1cc(S(=O)(=O)c2cc(Cl)cc(Cl)c2)c2cccnc21` (as salt: hydrochloride) [Example 26]: the melting point lay in the range of 227 to 232 °C.
Take `NCCn1cc(S(=O)(=O)c2cccc(C(F)(F)F)c2)c2cccnc21` [Example 22]: the inhibition constant (Ki) in series [1] (setting [2]) was 2 nM.
Compound `Cc1c(S(=O)(=O)c2cccc(F)c2)c2cccnc2n1CCN` (as salt: hydrochloride) [Example 66] returned a melting point of 239 to 241 °C.
Regarding `O=S(=O)(c1cn(CCNCc2ccccc2)c2ncccc12)c1c(Cl)nc2sccn12` [Example 61], the melting point lay within 173 to 175 °C. Also, the inhibitory constant (Ki) in series [1] (setting [2]) worked out at 9 nM.
The compound `O=S(=O)(c1cccc(F)c1)c1cn(CCN2CCOCC2)c2ncccc12` (as salt: hydrochloride) [Example 30] returned a melting point of 127 to 129 °C.
With `CN(C)CCn1cc(S(=O)(=O)c2cc(Cl)cc(Cl)c2)c2cccnc21` [Example 26], the Ki in series [1] (setting [2]) came out at 4 nM.
On the same count and under the same terms, next, `CN(C)CCn1cc(S(=O)(=O)c2cccc(F)c2)c2ncccc21` [Example 77, N,N-Dimethyl-N-(2-{3-[(3-fluorophenyl)sulfonyl]-1H-pyrrolo[3,2-b]pyridin-1-yl}ethyl)amine Dihydrochloride]: 200 nM; `Cc1c(S(=O)(=O)c2ccccc2)c2cccnc2n1CCN` [Example 18]: 5 nM.
Regarding `NCCn1cc(S(=O)(=O)c2cccs2)c2cccnc21` (as salt: hydrochloride) [Example 23], the melting point lay within 202 to 204 °C.
As for `CN(C)CCn1cc(S(=O)(=O)c2ccccc2C(F)(F)F)c2cccnc21` [Example 20], the Ki in series [1] (setting [2]) is 11 nM.
On to `CN(C)CCn1cc(S(=O)(=O)c2ccccc2)c2nc(Cl)ccc21` [Example 81], for which the melting point fell in the range of 244 to 246 °C. Moreover, the Ki in series [1] (setting [2]) worked out at 214 nM.
As for `CN(C)CCn1cc(S(=O)(=O)c2cccc(Cl)c2)c2cccnc21` [Example 14], the Ki in series [1] (setting [2]) was determined as 2 nM.
Same read-out and setting: next, `CN(C)CCn1cc(S(=O)(=O)c2ccc(F)cc2)c2cccnc21` [Example 13]: 50 nM.
Compound `Cc1c(S(=O)(=O)c2ccc3ccccc3c2)c2cccnc2n1CCN(C)C` [Example 45] registered a melting point of 238 to 240 °C. Moreover, the Ki in series [1] (setting [2]) was 10 nM.
For `CN(C)CCn1cc(S(=O)(=O)c2cccc(C(F)(F)F)c2)c2cccnc21` [Example 19], the Ki in series [1] (setting [2]) turned out to be 5 nM.
Same read-out and setting: next, `O=S(=O)(c1cccc(Cl)c1)c1cn(CCN2CCCC2)c2ncccc12` [Example 27]: 45 nM.
Take `NCCn1cc(S(=O)(=O)c2ccc(F)cc2)c2cccnc21` [Example 11, 2-{3-[(4-Fluorophenyl)sulfonyl]-1H-pyrrolo[2,3-b]pyridin-1yl}ethylamine hydrochloride]: the Ki in series [1] (read-out: 5-HT6 Binding Ki) came out at 22 nM.
`CN(C)CCn1cc(S(=O)(=O)c2cccs2)c2cccnc21` (as salt: hydrochloride) [Example 25] returned a melting point of 212 to 216 °C.
With `COc1ccc2c(n1)c(S(=O)(=O)c1ccc(Br)cc1)cn2CCN(C)C` [Example 78], the melting point lay within 225 to 226 °C. The inhibition constant (Ki) in series [1] (setting [2]) turned out to be 4 nM.
Taken in the same sequence, the figures for `CN(C)CCn1cc(S(=O)(=O)c2ccccc2)c2ccc(Br)nc21` [Example 41] were 182 to 184 °C and 41 nM.
For `CC(CN)n1cc(S(=O)(=O)c2ccccc2)c2cccnc21` (stereo not shown) [Example 68], the inhibitory constant (Ki) in series [1] (setting [2]) was 14 nM.
In turn, `O=S(=O)(c1cn(CCN(Cc2ccccc2)Cc2ccccc2)c2ncccc12)c1c(Cl)nc2sccn12` [Example 39] yielded a melting point of 140 to 145 °C. In addition, the Ki in series [1] (setting [2]) amounted to 212 nM.
`CN(C)CCn1cc(S(=O)(=O)c2cccc(C(F)(F)F)c2)c2cccnc21` (as salt: hydrochloride) [Example 19] showed a melting point of 108 to 112 °C.
In the case of `CCNCCn1cc(S(=O)(=O)c2cccc(Cl)c2)c2cccnc21` [Example 60], the Ki in series [1] (setting [2]) was determined as 3 nM.
For `CN(C)CCn1cc(S(=O)(=O)c2ccc(Cl)s2)c2cccnc21` [Example 33], the Ki in series [1] (setting [2]) came out at 4 nM.
Still for that read-out and setting: next, `NCCn1cc(S(=O)(=O)c2cccs2)c2cccnc21` [Example 23]: 9 nM.
Consider `NCCn1cc(S(=O)(=O)c2ccccc2C(F)(F)F)c2cccnc21` (as salt: hydrochloride) [Example 21], for which the melting point is 182 to 185 °C.
With `NCCn1cc(S(=O)(=O)c2cccc(F)c2)c2cccnc21` [Example 17], in series [1] (setting [2]), the Ki turned out to be 6 nM.
For `O=S(=O)(c1cccc(F)c1)c1cn(CCN2CCCCC2)c2ncccc12` [Example 29], in series [1] (setting [2]), the Ki worked out at 158 nM.
As for `CN(C)CCn1cc(S(=O)(=O)c2cccs2)c2cccnc21` [Example 25], the inhibitory constant (Ki) in series [1] (setting [2]) turned out to be 15 nM.
As for `CN(C)CCn1cc(S(=O)(=O)c2cc(Cl)ccc2Cl)c2cccnc21` [Example 38], the Ki in series [1] (setting [2]) was 12 nM.
As to `CN(C)CCn1cc(S(=O)(=O)c2cccc3ccccc23)c2cccnc21` [Example 15], the inhibitory constant (Ki) in series [1] (read-out: 5-HT6 Binding Ki) was determined as 1 nM.
Regarding `Cc1ccc(S(=O)(=O)c2cn(CCN)c3ncccc23)cc1` [Example 7, 2-{3-[(4-Methylphenyl)sulfonyl]-1H-pyrrolo[2,3-b]pyridin-1-yl}ethylamine dihydrochloride], the Ki in series [1] (setting [2]) was found to be 9 nM.
With `NCCn1cc(S(=O)(=O)c2ccc3ccccc3c2)c2cccnc21` (as salt: hydrochloride) [Example 67], the melting point is 233 to 238 °C.
For the compound `NCCn1cc(S(=O)(=O)c2cc(Cl)cc(Cl)c2)c2cccnc21` [Example 24], the Ki in series [1] (setting [2]) was determined as 3 nM.
For the compound `NCCn1cc(S(=O)(=O)c2cccc3ccccc23)c2cccnc21` (as salt: hydrochloride) [Example 16], the melting point is 148 to 170 °C.
In turn, `NCCn1cc(S(=O)(=O)c2cccc(C(F)(F)F)c2)c2cccnc21` (as salt: hydrochloride) [Example 22] had a melting point of 179 to 183 °C.
The same measure, in the same setting: the result for `CN(C)CCn1cc(S(=O)(=O)c2ccc(Cl)s2)c2cccnc21` (as salt: hydrochloride) [Example 33] reads 169 to 171 °C.
On to `NCCn1cc(S(=O)(=O)c2ccccc2)c2cccnc21` [Example 5, 2-[3-(Phenylsulfonyl)-1H-pyrrolo[2,3-b]pyridin-1-yl]ethylamine dihydrochloride], for which the Ki in series [1] (setting [2]) amounted to 6 nM.
On the same count and under the same terms, next, `NCCn1cc(S(=O)(=O)c2ccc3ccccc3c2)c2cccnc21` [Example 67]: 24 nM.
In turn, `CN(C)CCn1cc(S(=O)(=O)c2cc(Cl)ccc2Cl)c2cccnc21` (as salt: hydrochloride) [Example 38] gave a melting point of 230 to 232 °C.
`NCCn1cc(S(=O)(=O)c2cc(Cl)cc(Cl)c2)c2cccnc21` (as salt: hydrochloride) [Example 24]: the melting point is 136 to 140 °C.
`NCCn1cc(S(=O)(=O)c2ccccc2C(F)(F)F)c2cccnc21` [Example 21]: in series [1] (setting [2]), the inhibition constant (Ki) was found to be 2 nM.
On to `CN(C)CCn1cc(S(=O)(=O)c2ccccc2)c2cccnc21` [Example 6, N,N-Dimethyl-N-{2-[3-(phenylsulfonyl)-1H-pyrrolo[2,3-b]pyridin-1-yl]ethyl}amine dihydrochloride], for which, in series [1] (read-out: 5-HT6 Binding Ki), the inhibitory constant (Ki) worked out at 23 nM.
The same measure, in the same setting: the result for `CNCCn1cc(S(=O)(=O)c2cccc(Cl)c2)c2cccnc21` [Example 57, N-(2-{3-[(3-Chlorophenyl)sulfonyl]-1H-pyrrolo[2,3-b]pyridin-1-yl}ethyl)-N-methylamine Hydrochloride] reads 0.3 nM.
`NCCn1cc(S(=O)(=O)c2cccc(F)c2)c2cccnc21` (as salt: hydrochloride) [Example 17] registered a melting point of 202 to 204 °C.
